Columns and labels:
[1] = 101.33 kPa, Liquid
[2] = refractive index (Na D-line) (dimensionless); conditions: 298.15 K; 101.33 kPa; Liquid; Standard Abbe refractometry
[3] = xn = mol fraction of the nth substance listed; conditions: 101 kPa, Liquid

CCO [ethanol]
[1]
Conditions | mass density [kg/m3]
283.15 K | 797.99
288.15 K | 793.73
293.15 K | 789.47
298.15 K | 785.18
303.15 K | 780.87
308.15 K | 776.52
313.15 K | 772.14

Conditions | refractive index
[2] | 1.3595

CO [methanol]
[1]
Conditions | mass density [kg/m3]
283.15 K | 800.67
288.15 K | 795.98
293.15 K | 791.28
298.15 K | 786.57
303.15 K | 781.85
308.15 K | 777.1
313.15 K | 772.32

Conditions | refractive index
[2] | 1.327

CO [methanol] + CCO
mass density [kg/m3], [3]
Conditions | x1 = 0.0729 | x1 = 0.1632 | x1 = 0.3251 | x1 = 0.5592 | x1 = 0.6349 | x1 = 0.7182 | x1 = 0.8027 | x1 = 0.8714 | x1 = 0.9485
283.15 K | 798.11 | 798.27 | 798.58 | 799.14 | 799.35 | 799.6 | 799.88 | 800.12 | 800.43
288.15 K | 793.83 | 793.97 | 794.22 | 794.68 | 794.85 | 795.07 | 795.3 | 795.51 | 795.78
293.15 K | 789.54 | 789.64 | 789.84 | 790.2 | 790.34 | 790.52 | 790.71 | 790.89 | 791.1
298.15 K | 785.23 | 785.3 | 785.44 | 785.7 | 785.81 | 785.95 | 786.11 | 786.25 | 786.43
303.15 K | 780.89 | 780.94 | 781.02 | 781.19 | 781.26 | 781.36 | 781.49 | 781.59 | 781.73
308.15 K | 776.52 | 776.54 | 776.57 | 776.65 | 776.69 | 776.76 | 776.84 | 776.9 | 777.01
313.15 K | 772.12 | 772.11 | 772.09 | 772.08 | 772.09 | 772.12 | 772.16 | 772.19 | 772.26

O [water]
Conditions | refractive index
[2] | 1.3326

From the NIST ThermoML archive (doi:10.1021/je700300y)
